Data on five compounds can be found in paper PMC8556396, “Statin-mediated disruption of Rho GTPase prenylation and activity inhibits respiratory syncytial virus infection” (Communications Biology, 2021).

Usually EC50 stands for the concentration that produces a half-maximal response. A lower EC50 goes with an effect from little substance. As a reminder, the inhibition is the drop in the measured response relative to a control, in per cent.

Where “and” joins values, the source holds several entries; their conditions need not be identical. Equal entries are not always repeated. Entries after “also recorded” stand apart in the source; their conditions may differ.

For one experiment, the system named is RSV A2. The experiment can be described thus: Immunofluorescence staining and microscopy of RSV F and N. Conditions: mevalonolactone 1 mM with atorvastatin 3.5 µM or simvastatin 1.5 µM.
The test system of experiment [1] is RSV-GFP. The experiment can be described thus: RSV-GFP infection of HEp-2 cells, automated imaging, dose-response. Format: cell-based, Respiratory syncytial virus. The following applies: for EC50: HEp-2, 2 h, HEp-2, RSV-GFP MOI 0.5, treated 2 h post-viral exposure; for inhibition at 0.75 µM: read-out: RSV-GFP inhibition (%), log Conc (uM) -0.12494; for inhibition at 0.5 µM: read-out: RSV-GFP inhibition (%), log Conc (uM) -0.30103; for inhibition at 0.05 µM: read-out: RSV-GFP inhibition (%), log Conc (uM) -1.30103; for RSV-GFP inhibition (%): 48 h p.i.; for inhibition at 0.25 µM: read-out: RSV-GFP inhibition (%), log Conc (uM) -0.60206; for inhibition at 0.1 µM: read-out: RSV-GFP inhibition (%), log Conc (uM) -1; for inhibition at 0.01 µM: read-out: RSV-GFP inhibition (%), log Conc (uM) -2. As to the method:
HEp-2 cells were seeded to black, flat, microclear-bottom 96-well plates (655096, Greiner Bio-One) at a density of 5000 cells per well and incubated at 37 °C/5% CO2 overnight. The following morning, cells were washed twice with serum-free EMEM and treated with RSV-GFP (MOI 0.5) in a minimal volume of serum-free media for 90 min under frequent agitation. Unbound virus was then removed and replaced with fresh serum-containing EMEM. All drug additions were performed 2 h post-viral exposure, unless otherwise stated. Nuclei were stained with Hoechst 33342 (H3570, Thermo Fisher Scientific) (at a final concentration of 1 µg/mL) 48 h p.i. and imaging was performed using the Cellomics ArrayScan VTI HCS Reader at ×10 magnification (SPARC BioCentre, The Hospital for Sick Children, Toronto, ON).
Automated quantification of infection rates from fluorescent images were performed in CellProfiler (v2.2.0)[86]. Major steps in the image analysis pipeline included: (1) background subtraction and smoothing, (2) segmentation of nuclei, (3) segmentation of GFP-fluorescent area, (4) object masking, and (5) measurement of nuclear number, size, and intensity. Infection rate was quantified from the ratio of nuclei within GFP-fluorescent area to the total number of nuclei (Fig. 1b). This method of analysis accounts for in vitro syncytium formation induced by RSV, whereby a single infected cell may arise from the fusion of multiple cells. Mean nuclear fluorescent intensity and size was quantified as a measure of cell viability. […]

Experiment [2] relates to RSV-GFP. The experiment can be described thus: microbe, parasite or virus in culture. It counts as cell-based, Respiratory syncytial virus. The following applies: human respiratory syncytial virus, HEp-2, read-out: RSV-GFP inhibition (%). As to the method: The following morning, cells were washed twice with serum-free EMEM and treated with RSV-GFP (MOI 0.5) in a minimal volume of serum-free media for 90 min under frequent agitation. Unbound virus was then removed and replaced with fresh serum-containing EMEM. All drug additions were performed 2 h post-viral exposure, unless otherwise stated.
Automated quantification of infection rates from fluorescent images were performed in CellProfiler (v2.2.0)[86]. Major steps in the image analysis pipeline included: (1) background subtraction and smoothing, (2) segmentation of nuclei, (3) segmentation of GFP-fluorescent area, (4) object masking, and (5) measurement of nuclear number, size, and intensity. Infection rate was quantified from the ratio of nuclei within GFP-fluorescent area to the total number of nuclei (Fig. 1b). This method of analysis accounts for in vitro syncytium formation induced by RSV, whereby a single infected cell may arise from the fusion of multiple cells. Mean nuclear fluorescent intensity and size was quantified as a measure of cell viability.
The MicroSource […] Collection (Discovery Systems Inc.) consisting of 2400 compounds was screened using the previously outlined RSV-GFP infection assay protocol. Robot-assisted addition of drugs was performed within 1 h of RSV-GFP infection and infection rates were assayed 48 h p.i. Drugs were provided as 10 mM stocks in DMSO and serial diluted to a final concentration of 10 µM, resulting in a final DMSO concentration of 0.1% v/v. […] Hits were selected based on the criteria that: (a) the tested drug caused a >50% reduction in infection rate and (b) was not overtly cytotoxic (<10% change in mean nuclear intensity relative to DMSO control). Z-factors were calculated on a per-plate basis to monitor assay quality.

The mark [3] stands for this setting: human respiratory syncytial virus.
Setting [4] is: human respiratory syncytial virus, HEp-2, 48 h, replicate values.

Experimental for RSV A2: HEp-2 cells were seeded to No. 1 glass coverslips (1014355117NR1, Thermo Fisher Scientific) for high-resolution confocal microscopy, or black, flat, microclear-bottom 96-well plates (655096, Greiner Bio-One) for high-throughput quantification of RSV F and N immunofluorescence. Cells were infected with RSV A2 (MOI 0.5). At 48 h p.i., cells were fixed in 4% paraformaldehyde for 30 min and permeabilized with 0.3% Triton X-100 for 10 min at room temperature. F and N proteins were probed using mouse anti-RSV F (RSV3216) and mouse anti-RSV N (RSV3132) mAbs (Bio-Rad Antibodies) diluted 1:500 in PBS + 0.1% Tween-20 (PBST), or mouse anti-RSV F mAb Alexa Fluor 488 conjugate (Millipore Sigma, 133/1H) diluted 1:200 in PBST over a 1-h incubation at room temperature. This was followed by detection with secondary anti-mouse Fab fragments conjugated to Alexa Fluor 488 (4408) or 647 (4410) (Cell Signaling Technology) diluted 1:1000 in PBST over a 1-h incubation at room temperature. Fluorescent images were acquired using either the Cellomics ArrayScan VTI HCS Reader at ×10 magnification (for quantification) or Olympus IX81 Spinning Disk Confocal microscope at ×60 magnification with oil immersion (for high-resolution images). F and N immunofluorescence was quantified in CellProfiler and normalized to total nuclear count.

On to `CC1(O)CCOC(=O)C1` (racemic) [Mevalonolactone, DL-mevalonolactone], for which the “effect of mevalonolactone co-treatment in statin-treated cells” value in the experiment with RSV A2 is recorded as “restore viral protein intensity to DMSO (0.1% v/v) baseline”.

For `O=c1cc(-c2ccccc2)oc2ccc(O)cc12` [6-Hydroxyflavone], in the experiment with RSV-GFP [1] (setting [3]), the half-maximal effective concentration (EC50) was 705 nM. Further, in the experiment on RSV-GFP [1] (setting [4]), the inhibition at 0.75 µM worked out at 56.1%, the inhibition at 0.5 µM came to 36.6% and the inhibition at 0.05 µM came out at 11.4%. For the same compound, the inhibition at 10 µM in the experiment on RSV-GFP [2] was found to be 74.1%.

On to `CNc1nc(C)c(-c2nc(Nc3cccc(S(N)(=O)=O)c3)ncc2F)s1` [CDKI-73], for which, in the experiment on RSV-GFP [1] (CDKI-73 0.5 µM or 1.0 µM), the “effect on RSV-GFP infection rate” value was “did not reduce infection rate; also recorded: did not reduce RSV-GFP infection rates”. Besides, the “RSV-GFP inhibition (%)” value in the experiment on RSV-GFP [1] (CDKI-73 0.5 uM, replicate values) is 15.9529% and 3.2849% and 2.901% and 0.6729%; in the experiment with RSV-GFP [1] (CDKI-73 1 uM, replicate values), 5.404% and 7.553% and -1.2228% and 1.11%.

In the experiment on RSV-GFP [1] (setting [3]), `C[C@H]1O[C@@H](O[C@H]2[C@@H](O)C[C@H](O[C@H]3[C@@H](O)C[C@H](O[C@H]4CC[C@@]5(C)[C@H](CC[C@@H]6[C@@H]5CC[C@]5(C)[C@@H](C7=CC(=O)OC7)CC[C@]65O)C4)O[C@@H]3C)O[C@@H]2C)C[C@H](O)[C@@H]1O` [Digitoxin] gave a concentration giving a half-maximal response (EC50) of 11 nM. For the same compound, in the experiment on RSV-GFP [1] (setting [4]), the inhibition at 0.5 µM was 99.9%, the inhibition at 0.25 µM is 98.6%, the inhibition at 0.1 µM was determined as 78.3% and the inhibition at 0.05 µM came out at 73%. Further, the inhibition at 0.01 µM in the experiment with RSV-GFP [1] (setting [4]) is 55%. Besides, the inhibition at […] with RSV-GFP [1] (human respiratory syncytial virus, HEp-2, 48 h, read-out: RSV-GFP inhibition (%), log Conc (uM) -0.75696, replicate values) was determined as 99.8%. Besides, the inhibition at 0.04 µM in the experiment on RSV-GFP [1] (human respiratory syncytial virus, HEp-2, 48 h, read-out: RSV-GFP inhibition (%), log Conc (uM) -1.39794, replicate values) turned out to be 78.7%. Moreover, the inhibition at 0.03 µM with RSV-GFP [1] (human respiratory syncytial virus, HEp-2, 48 h, read-out: RSV-GFP inhibition (%), log Conc (uM) -1.52288, replicate values) was found to be 82%. Besides, the inhibition at 0.02 µM in the experiment on RSV-GFP [1] (human respiratory syncytial virus, HEp-2, 48 h, read-out: RSV-GFP inhibition (%), log Conc (uM) -1.69897, replicate values) was 68.5%. In the experiment with RSV-GFP [2], the inhibition at 10 µM turned out to be 98.8%.

As for `C[C@H]1O[C@@H](O[C@H]2[C@@H](O)C[C@H](O[C@H]3[C@@H](O)C[C@H](O[C@H]4CC[C@@]5(C)[C@H](CC[C@@H]6[C@@H]5C[C@@H](O)[C@]5(C)[C@@H](C7=CC(=O)OC7)CC[C@]65O)C4)O[C@@H]3C)O[C@@H]2C)C[C@H](O)[C@@H]1O` [Digoxin], the EC50 in the experiment on RSV-GFP [1] (setting [3]) is 26 nM. Also, in the experiment with RSV-GFP [1] (setting [4]), the inhibition at 0.75 µM came out at 99.9%, the inhibition at 0.5 µM turned out to be 100%, the inhibition at 0.25 µM amounted to 86.5% and the inhibition at 0.1 µM stood at 85.5%. In the experiment on RSV-GFP [1] (setting [4]), the inhibition at 0.05 µM was 68.3% and the inhibition at 0.01 µM turned out to be 25.2%. Further, in the experiment on RSV-GFP [1] (human respiratory syncytial virus, HEp-2, 48 h, read-out: RSV-GFP inhibition (%), log Conc (uM) -2.12494, replicate values), the inhibition at 0.0075 µM is 18%. Moreover, the inhibition at 0.001 µM in the experiment with RSV-GFP [1] (human respiratory syncytial virus, HEp-2, 48 h, read-out: RSV-GFP inhibition (%), log Conc (uM) -3, replicate values) is 9.48%. In the experiment with RSV-GFP [2], the inhibition at 10 µM amounted to 99.1%.
